Measured values published in article PMC11510424, “Developing Robust Human Liver Microsomal Stability Prediction Models: Leveraging Inter-Species Correlation with Rat Data” (Pharmaceutics, 2024).
Like-named read-outs stand apart in the source and are kept apart here.

Procedure: The substrate depletion method was used to determine half-life (t1/2) of compounds by measuring the disappearance of the parent compound over time. Incubations were performed on a Tecan EVO 200 robotic system (Morrisville, NC, USA), equipped with a 96-channel head, Inheco heating block, and controlled by EVOware software (Version 3.5). Mixed-gender human liver microsomes were purchased from Xenotech (Kansas City, KS, USA) (Catalog: H0610). Gentest NADPH Regenerating Solution A and B (Catalog: 451220/451200), Axygen reservoirs (Catalog: RES-SW384-LP/RES-SW384-HP) were purchased from Corning Inc. (Corning, NY, USA). Incubation plates (384-well, 250 µL; Catalog# 186002632) and LC/MS analysis plates (384-well, 100 µL; Catalog# 186002631) were purchased from Waters Inc. (Milford, MA, USA). […] An albendazole solution in acetonitrile (ACN/IS) was prepared for use as an internal standard. Each 110 μL reaction mixture included the test compound (1 μM), HLM (0.5 mg/mL), and NADPH regenerating system in phosphate buffer (pH 7.4). The samples were incubated in 384-well plates at 37 °C for 0, 5, 10, 15, 30, and 60 min. At each designated time point, 10 μL of the mixture was transferred to another 384-well plate containing cold ACN/IS. The plates were then centrifuged at 3000 rpm for 20 min at 4 °C, and supernatants were collected into a 384-well injection plate. Sample quantification was performed using Thermo UPLC/HRMS and data were analyzed using TraceFinder software (Version 4.1). The data were then extracted, and half-life analysis was performed using our in-house Validator software (Version 1.0) as described previously.
[1] = mixed-gender HLM 0.5 mg/mL, test compound 1 μM, NADPH regenerating system, pH 7.4, 37 °C, 0-60 min, mean ± S.D. over 6 years, > 40 plates, t1/2 capped at 120 min

Half-Life (t1/2) (pH 7.4) | Half-Life (t1/2) [1] | SMILES
>120 min |  | Cc1cc(=O)n(-c2ccccc2)n1C [Antipyrine, antipyrine]
 | 14.4 ± 4.1 min | O=C1CC2(CCCC2)CC(=O)N1CCCCN1CCN(c2ncccn2)CC1 [Buspirone, buspirone]
 | 55.2 ± 10.1 min | CC(C)NCC(O)COc1cccc2ccccc12 (stereo not drawn) [Propranolol, propranolol]
